Measured values as given in US8017792B2, “1-thio-D-glucitol derivatives” (Taisho Pharmaceutical Co., Ltd., priority 2005, dated 2011).
pIC50: −log10 of the molar value. Where a name gives a salt, the structure may show the parent alone.

Assays:
Human SGLT2 = target: T1, Human SGLT2 (Homo sapiens, UniProt P31639); assay: Sodium-dependent sugar uptake inhibition test in CHO-K1 cells stably expressing human SGLT2 (Test Example 2); type: cell-based; settings: for pIC50: CHO-K1 cells, [14C]methyl-α-D-glucopyranoside 1 mM, 37° C., one hour; for SGLT1/SGLT2: ratio of IC50 human SGLT1 to IC50 human SGLT2
T1 construct: expressed in transfected cells; host or cells: CHO-K1
T1 sequence (P31639 1-672): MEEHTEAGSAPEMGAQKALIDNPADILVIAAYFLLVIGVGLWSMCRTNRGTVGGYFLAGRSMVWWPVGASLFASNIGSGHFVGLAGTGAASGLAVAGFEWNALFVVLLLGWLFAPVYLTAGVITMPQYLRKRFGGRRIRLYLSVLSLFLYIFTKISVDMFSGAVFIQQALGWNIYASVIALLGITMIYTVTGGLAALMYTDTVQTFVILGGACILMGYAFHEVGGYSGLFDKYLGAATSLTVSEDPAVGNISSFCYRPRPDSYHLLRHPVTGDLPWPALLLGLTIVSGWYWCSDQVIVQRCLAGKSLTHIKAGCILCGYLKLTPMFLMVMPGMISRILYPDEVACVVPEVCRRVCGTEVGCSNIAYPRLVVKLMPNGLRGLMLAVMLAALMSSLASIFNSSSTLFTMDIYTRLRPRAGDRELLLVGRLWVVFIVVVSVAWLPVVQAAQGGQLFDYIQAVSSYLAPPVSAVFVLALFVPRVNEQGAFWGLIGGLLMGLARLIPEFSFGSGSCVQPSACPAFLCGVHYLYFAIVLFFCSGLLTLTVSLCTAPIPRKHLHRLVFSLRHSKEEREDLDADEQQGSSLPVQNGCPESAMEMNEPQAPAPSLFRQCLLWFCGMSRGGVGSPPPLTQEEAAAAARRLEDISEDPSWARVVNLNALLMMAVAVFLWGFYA
Protocol: (§1) Human SGLT1 sequence (NM_000343) was reverse-transcripted from human small intestinal mRNA, then amplified, and then introduced into pCMV-tag5A from Stratagene Corporation. Human SGLT2 sequence (NM_003041) was prepared from human nephric mRNA as with the above method, and then introduced into pcDNA3.1+hygro from Invitrogen Corporation. Each cloned sequence was confirmed to be identical with the reported sequence.
(§2) CHO-K1 cells were transfected with the human SGLT1 and human SGLT2 expression vectors using Lipofectamine 2000 (Invitrogen Corporation). SGLT expression cells were cultured in the presence of geneticin (SGLT1) or hygromycin B (SGLT2) of the concentration of 500 μg/mL to select resistant strains. Cells were obtained using sugar uptake specific activity as an index in the following system.
(§3) Cells stably expressing human SGLT1 and human SGLT2 were used in the sodium-dependent sugar uptake activity inhibition test. Cells were incubated in 1 mL of a pretreatment buffer solution (140 mM choline chloride, 2 mM KCl, 1 mM CaCl2, 1 mM MgCl2, 10 mM HEPES/5 mM Tris, pH 7.4) for 20 minutes. The pretreatment buffer solution was removed and 200 μL of an uptake buffer containing test compounds (methyl-α-D-glucopyranoside containing [^14C]methyl-α-D-glucopyranoside (0.1 mM for SGLT1 inhibition, 1 mM for SGLT2 inhibition), 140 mM NaCl, 2 mM KCl, 1 mM CaCl2, 1 mM MgCl2, 10 mM HEPES/5 mM Tris, pH 7.4) were added, and uptake reaction was performed at 37° C. for 30 minutes (SGLT1) or for one hour (SGLT2). After the reaction, cells were washed with 1 mL of a washing buffer (10 mM methyl-α-D-glucopyranoside, 140 mM choline chloride, 2 mM KCl, 1 mM CaCl2, 1 mM MgCl2, 10 mM HEPES/5 mM Tris, pH 7.4) twice and dissolved in 400 μL of 0.2 M NaOH solution. After Aquazole 2 (Perkin Elmer Corporation) was added and mixed well, radioactivity was measured with a liquid scintillation counter (Beckman Coulter Corporation). A buffer for uptake which contained no test compound was prepared as a control group. Another buffer solution for uptake containing choline chloride in place of NaCl was also prepared for basic uptake.

Human SGLT1 = target: T2, Human SGLT1 (Homo sapiens, UniProt P13866); assay: Sodium-dependent sugar uptake inhibition test in CHO-K1 cells stably expressing human SGLT1 (Test Example 2); type: cell-based; settings: [14C]methyl-α-D-glucopyranoside 0.1 mM, 37° C., 30 minutes
T2 construct: expressed in transfected cells; host or cells: CHO-K1
T2 sequence (P13866 1-664): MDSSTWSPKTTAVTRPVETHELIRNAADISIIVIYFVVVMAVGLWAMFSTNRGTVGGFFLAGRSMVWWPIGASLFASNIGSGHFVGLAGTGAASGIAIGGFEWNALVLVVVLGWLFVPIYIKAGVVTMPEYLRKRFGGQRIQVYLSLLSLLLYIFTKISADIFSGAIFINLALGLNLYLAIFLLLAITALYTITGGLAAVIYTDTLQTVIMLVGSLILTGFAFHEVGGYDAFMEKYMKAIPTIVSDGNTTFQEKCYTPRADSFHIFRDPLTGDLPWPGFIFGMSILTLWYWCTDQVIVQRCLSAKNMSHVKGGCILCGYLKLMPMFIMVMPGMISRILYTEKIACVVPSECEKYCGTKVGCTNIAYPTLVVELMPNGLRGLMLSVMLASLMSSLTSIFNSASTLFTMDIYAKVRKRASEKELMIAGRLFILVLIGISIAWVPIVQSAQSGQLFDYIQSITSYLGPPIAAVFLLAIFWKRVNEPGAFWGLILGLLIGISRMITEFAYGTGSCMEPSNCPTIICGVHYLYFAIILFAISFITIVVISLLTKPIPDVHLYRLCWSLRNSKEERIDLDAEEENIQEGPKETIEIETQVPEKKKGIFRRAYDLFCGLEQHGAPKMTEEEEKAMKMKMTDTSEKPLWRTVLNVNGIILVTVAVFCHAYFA
Protocol: as §1, §2, §3

SMILES | melting point | pIC50 (Human SGLT2) | SGLT1/SGLT2 (Human SGLT2) | pIC50 (Human SGLT1)
OC[C@H]1S[C@@H](c2cccc(Cc3cc4ccccc4s3)c2)[C@H](O)[C@@H](O)[C@@H]1O [Compound 129, (1S)-1,5-Anhydro-1-[3-[(1-benzothien-2-yl)methyl]-phenyl]-1-thio-D-glucitol] | 159.5 to 160 °C | 5.52 | 4.3 | 4.89
CCOc1ccc(Cc2cc([C@@H]3S[C@H](CO)[C@@H](O)[C@H](O)[C@H]3O)c(O)cc2O)cc1 [Compound 100, (1S)-1,5-Anhydro-1-[3-(4-ethoxybenzyl)-4,6-dihydroxyphenyl]-1-thio-D-glucitol] | 186 to 190 °C | 5.82 | 2.9 | 5.36
COc1ccc(Cc2cc3ccccc3s2)cc1[C@@H]1S[C@H](CO)[C@@H](O)[C@H](O)[C@H]1O [Compound 130, (1S)-1,5-Anhydro-1-[3-[(1-benzothien-2-yl)methyl]-6-methoxyphenyl]-1-thio-D-glucitol] | 97.5 to 98 °C | 5.67 | – | < 5.00
Clc1ccc([C@@H]2S[C@H](COCc3ccccc3)[C@@H](OCc3ccccc3)[C@H](OCc3ccccc3)[C@H]2OCc2ccccc2)cc1Cc1cc2ccccc2s1 [Compound 57] | 140 to 143 °C | – | – | –
CCOc1ccc(Cc2cc([C@@H]3S[C@H](CO)[C@@H](O)[C@H](O)[C@H]3O)ccc2Cl)cc1Cl [Compound 85, (1S)-1,5-Anhydro-1-[4-chloro-3-(3-chloro-4-ethoxybenzyl)phenyl]-1-thio-D-glucitol] | 79 to 82 °C | 5.90 | 4.8 | 5.21
CCOc1ccc(Cc2cc([C@@H]3S[C@H](COCc4ccccc4)[C@@H](OCc4ccccc4)[C@H](OCc4ccccc4)[C@H]3OCc3ccccc3)ccc2Cl)cc1 [Compound 3] | 126 to 128 °C | – | – | –
CCc1ccc(Cc2cccc([C@@H]3S[C@H](COCc4ccccc4)[C@@H](OCc4ccccc4)[C@H](OCc4ccccc4)[C@H]3OCc3ccccc3)c2)cc1 [Compound 1, (1S)-1,5-anhydro-2,3,4,6-tetra-O-benzyl-1-[3-(4-ethylbenzyl)phenyl]-1-thio-D-glucitol] | 100 to 102.5 °C | – | – | –
CCOc1ccc(Cc2cc([C@@H]3S[C@H](CO)[C@@H](O)[C@H](O)[C@H]3O)c(OC)cc2Cl)cc1 (as salt: Na) [Compound 99, (1S)-1,5-anhydro-1-[4-chloro-5-(4-ethoxybenzyl)-2-methoxyphenyl]-1-thio-D-glucitol] | 177 to 179 °C | – | – | –
COc1ccc([C@@H]2S[C@H](COCc3ccccc3)[C@@H](OCc3ccccc3)[C@H](OCc3ccccc3)[C@H]2OCc2ccccc2)cc1Cc1cc2ccccc2s1 [Compound 56] | 133 to 135 °C | – | – | –
CCOc1cc(F)c(Cc2cc([C@@H]3S[C@H](CO)[C@@H](O)[C@H](O)[C@H]3O)ccc2Cl)cc1F [Compound 83, (1S)-1,5-Anhydro-1-[4-chloro-3-(2,5-difluoro-4-ethoxybenzyl)phenyl]-1-thio-D-glucitol] | 72 to 76 °C | 7.52 | 48.7 | 5.82
CCOc1ccc(Cc2cc([C@@H]3S[C@H](CO)[C@@H](O)[C@H](O)[C@H]3O)ccc2F)cc1 [Compound 81, (1S)-1,5-Anhydro-1-[3-(4-ethoxybenzyl)-4-fluorophenyl]-1-thio-D-glucitol] | – | 6.22 | 10.9 | 5.19
CCOc1ccc(Cc2cc([C@@H]3S[C@H](CO)[C@@H](O)[C@H](O)[C@H]3O)ccc2Cl)cc1F [Compound 84, (1S)-1,5-Anhydro-1-[4-chloro-3-(3-fluoro-4-ethoxybenzyl)phenyl]-1-thio-D-glucitol] | 73 to 81 °C | 6.77 | 12.5 | 5.68
CCOc1ccc(Cc2cc([C@@H]3S[C@H](CO)[C@@H](O)[C@H](O)[C@H]3O)c(OC)cc2OC)cc1 [Compound 80, (1S)-1,5-Anhydro-1-[4,6-dimethoxy-3-(4-ethoxybenzyl)phenyl]-1-thio-D-glucitol] | – | 6.72 | – | 5.54
CCOc1ccc(Cc2ccc(OC)c([C@@H]3S[C@H](CO)[C@@H](O)[C@H](O)[C@H]3O)c2)cc1 [Compound 78, (1S)-1,5-Anhydro-1-[3-(4-ethoxybenzyl)-6-methoxy-phenyl]-1-thio-D-glucitol] | – | 5.98 | 115.4 | 3.92
CCOc1ccc(Cc2cc([C@@H]3S[C@H](CO)[C@@H](O)[C@H](O)[C@H]3O)c(O)cc2C)cc1 [Compound 98, (1S)-1,5-Anhydro-1-[3-(4-ethoxybenzyl)-6-hydroxy-4-methylphenyl]-1-thio-D-glucitol] | – | 7.82 | 6.5 | 7.00
CCOc1ccc(Cc2cc([C@@H]3S[C@H](CO)[C@@H](O)[C@H](O)[C@H]3O)ccc2Cl)c(F)c1 [Compound 91, (1S)-1,5-Anhydro-1-[4-chloro-3-(2-fluoro-4-ethoxybenzyl)phenyl]-1-thio-D-glucitol] | – | 6.96 | 15.5 | 5.77
COc1ccc(Cc2cc([C@@H]3S[C@H](CO)[C@@H](O)[C@H](O)[C@H]3O)ccc2Cl)cc1 [Compound 88, (1S)-1,5-Anhydro-1-[4-chloro-3-(4-methoxybenzyl)phenyl]-1-thio-D-glucitol] | – | 7.10 | 2.8 | 6.70
